Literature values, collected in patent US20130028962A1, “Triggered Cargo Release from Nanoparticle Stabilized Liposomes” (THE REGENTS OF THE UNIVERSITY OF CALIFORNIA, priority 2010, published 2013).

System: MRSA bacteria
Conditions: against MRSA bacteria

For `CN[C@H](CC(C)C)C(=O)N[C@H]1C(=O)N[C@@H](CC(N)=O)C(=O)N[C@H]2C(=O)N[C@H]3C(=O)N[C@H](C(=O)N[C@H](C(=O)O)c4cc(O)cc(O)c4-c4cc3ccc4O)[C@H](O)c3ccc(c(Cl)c3)Oc3cc2cc(c3O[C@@H]2O[C@H](CO)[C@@H](O)[C@H](O)[C@H]2O[C@H]2C[C@](C)(N)[C@H](O)[C@H](C)O2)Oc2ccc(cc2Cl)[C@H]1O` [vancomycin], the “minimal inhibitory concentration (MIC)” value is listed as “about 2 μg/mL”.
